Laboratory results reported in PMC7129073 (Clinical Microbiology and Infection, 2015).
≈ marks a conversion by molar mass, not a printed value. Like-named read-outs stand apart in the source and are kept apart here.

Tests used:
C. albicans = test: Antifungal susceptibility; type: cell-based, Candida albicans
C. glabrata = test: Antifungal susceptibility; type: cell-based, Candida glabrata
E. coli = test: SMART 2003 Europe, microdilution; type: cell-based, Escherichia coli; settings: 1106 isolates
[1] = test system: Streptococcus pyogenes (SPY); test: MIC; type: cell-based; settings: 2522 isolates
[2] = test system: Moraxella catarrhalis (MC); test: MIC; type: cell-based; settings: 2497 isolates
S. pneumoniae [3] = test: SELECT study, levofloxacin-treated RTIs caused by S. pneumoniae; type: in vivo, human
[4] = test system: inducible Enterobacteriaceae; test: SMART 2003, intraabdominal isolates; type: cell-based; settings: LA (N=113)
Acinetobacter = test: Disk diffusion; type: cell-based
[5] = test system: Haemophilus influenzae (HI); test: MIC; type: cell-based; settings: 7489 isolates
S. pneumoniae (SPN) [6] = test: NCCLS broth microdilution, fluoroquinolones 1999–2004; type: cell-based, Streptococcus pneumoniae; settings: Streptococcus pneumoniae, read-out: MIC90 during the six years, 1999–2004
S. pneumoniae [7] = test: PROTEKT Italy, NCCLS microdilution; type: cell-based, Streptococcus pneumoniae
[8] = test system: Pseudomonas aeruginosa (PA); test: MIC; type: cell-based
Enterobacteriaceae = test: SMART 2003 Europe, microdilution; type: cell-based; settings: 1948 isolates
[9] = test system: Streptococcus pneumoniae (SPN); test: MIC; type: cell-based; settings: 8378 isolates
S. aureus [10] = test: NCCLS broth microdilution, SSTI isolates; type: cell-based; settings: Staphylococcus aureus
S. pneumoniae [11] = test: Broth microdilution; type: cell-based, Streptococcus pneumoniae; settings: 275 isolates
S. pneumoniae [12] = test: MIC of invasive strains, Saint George Hospital 2001–2004; type: cell-based, Streptococcus pneumoniae
Klebsiella = test: SMART 2003 Europe, microdilution; type: cell-based, Klebsiella spp.; settings: 341 isolates
[13] = test system: Streptococcus agalactiae strains P0162 and P0425; test: Microdilution; type: cell-based
[14] = test system: viridans group streptococci (VGS); test: MIC; type: cell-based
H. influenzae [15] = test: Broth microdilution; type: cell-based, Haemophilus influenzae; settings: 267 isolates
[16] = test system: Salmonella serotype Typhimurium; test: Disk diffusion, food isolates Spain; type: cell-based; settings: n = 53
S. maltophilia = test: Susceptibility of respiratory isolates of cancer patients; type: cell-based, Stenotrophomonas maltophilia; settings: 40 patients
S. aureus SCVs = test: Resistance of small colony variants from cystic fibrosis patients; type: cell-based, Staphylococcus aureus; settings: CF patients, Frankfurt 2004
H.influenzae = test: PROTEKT Italy, NCCLS microdilution; type: cell-based, Haemophilus influenzae
H. influenzae [17] = type: cell-based, Haemophilus influenzae
H. influenzae [18] = test: Disk diffusion, sputum isolates Athens 2001–2004; type: cell-based, Haemophilus influenzae
[19] = test system: Salmonella serotype Enteritidis; test: Disk diffusion, food isolates Spain; type: cell-based; settings: n = 96
[20] = test system: glycopeptide intermediate Staphylococcus species (GISS); test: VITEK II, screening plate and E test, blood isolates; type: cell-based, coagulase-negative Staphylococci; settings: 73 GISS strains
Escherichia coli = test: Vitek 2 susceptibility, urine isolates of children; type: cell-based
M. catarrhalis = test: PROTEKT Italy, NCCLS microdilution; type: cell-based, Moraxella catarrhalis
[21] = UTI under TMP-SMX prophylaxis after renal transplantation; type: in vivo, human; settings: prophylaxis for 12 months; 104 of 336 patients
S. aureus [22] = test: E-test susceptibility; type: cell-based, Staphylococcus aureus
[23] = test system: Coagulase Negative Staphylococci; test: E-test susceptibility; type: cell-based
S. pneumoniae (SPN) [24] = test: SENTRY Brazil, NCCLS broth microdilution; type: cell-based, Streptococcus pneumoniae
C. difficile = test: E-test, isolates from a department of surgery; type: cell-based, Clostridium difficile; settings: Clostridioides difficile, read-out: MIC of high level resistant strains
F. necrophorum = test: E-test, 13 clinical isolates; type: cell-based, Fusobacterium necrophorum; settings: for MIC50 / MIC90: Fusobacterium necrophorum
S. pneumoniae [25] = type: cell-based, Streptococcus pneumoniae
[26] = test system: foreign body infection Staphylococcus epidermidis strains; test: NCCLS disk diffusion; type: cell-based; settings: 86 strains
C. jejuni ATCC 33560 = test: VetMIC broth microdilution, QC strain; type: cell-based; settings: Campylobacter jejuni, ATCC33560, read-out: QC limits (MIC)
[27] = test system: Clostridium difficile (CD); test: Agar dilution MIC, CDAD isolates Montreal; type: cell-based; settings: Clostridioides difficile
B. fragilis strains = test: E-test MIC before and after passages on metronidazole agar; type: cell-based; settings: Bacteroides fragilis
Clostridium difficile = test: microbe, parasite or virus in culture; type: cell-based
[28] = ICU, SRGA breakpoints, tigecycline tentative S ≤2 μg/ml

CC(=O)N1CCN(c2ccc(OCC3COC(Cn4ccnc4)(c4ccc(Cl)cc4Cl)O3)cc2)CC1 (stereo not drawn) [ketokonazole]
intermediate susceptibility (C. albicans): 2% | intermediate susceptibility (C. glabrata): 22%

C[C@H]1COc2c(N3CCN(C)CC3)c(F)cc3c(=O)c(C(=O)O)cn1c23 [levofloxacin]
per cent susceptible (E. coli): 81% | MIC90 [1]: 1 ig/ml | MIC90 [2]: 0.12 ig/ml | clinical successes (S. pneumoniae [3]; 500 mg once or twice daily, 90/100 subjects): 90% | clinical success, PNSSPs (S. pneumoniae [3]; 44/49): 89.8% | clinical success, PSSPs (S. pneumoniae [3]; 46/51): 90.2% | died due to initial infection (S. pneumoniae [3]; eight subjects): 8% | clinical failures (S. pneumoniae [3]; two subjects): 2% | % susceptible [4]: 80% | resistant isolates (Acinetobacter): 78.4% | MIC90 [5]: 0.12 ig/ml | MIC90 (S. pneumoniae (SPN) [6]): 1 to 2 µg/mL (≈ 2.77 to 5.53 µM) | susceptible (S. pneumoniae [7]; year 1: 2002): 97.3% | susceptible (S. pneumoniae [7]; year 2: 2003): 97.1% | isolates with MPC ≥ 8 μg/ml [8]: 64% | MPC range ([8]; 10 billion organisms on agar): 2 to 16 µg/mL | MIC range ([8]; patients P1 and P2): 0.25 to 2 µg/mL | per cent susceptible (Enterobacteriaceae): 86% | MIC90 [9]: 1 ig/ml | MIC50 (S. aureus [10]): 0.25 µg/mL (≈ 0.692 µM) | Susceptibility (S. pneumoniae [11]): 99.6% | % S (S. pneumoniae [12]): 100% | %R (S. pneumoniae [12]): 0% | per cent susceptible (Klebsiella): 93% | MIC ([13]; strain P0162 (ParC Ser79Phe, GyrA Glu85Ala)): 8 µg/mL (≈ 22.1 µM) | MIC ([13]; strain P0425 (ParC Ser79Phe, GyrA Glu85Lys)): > 32 µg/mL | MIC50 [14]: 0.5 µg/mL (≈ 1.38 µM) | MIC90 [14]: 1 µg/mL (≈ 2.77 µM)

trimethoprim/sulfamethoxazole
susceptible (H. influenzae [15]): 54.3% | resistance rate (NCCLS M100-S13) [16]: 19% | Susceptible isolates (S. maltophilia): 93% | resistance rate of SCV isolates (S. aureus SCVs): All SCV isolates were resistant | resistant isolates (Acinetobacter; 37 isolates selected as resistant to beta-lactams): 59.5% | resistance (H.influenzae; year 1): 13.6% | resistance (H.influenzae; year 2): 14.1% | resistant (H. influenzae [17]): 19% | resistance rate (H. influenzae [18]; 2001–2002): 26.9% | resistance rate (H. influenzae [18]; 2003–2004): 13.4% | resistance rate (NCCLS M100-S13) [19]: 7% | resistance rate [20]: 38,3% | Susceptibility (S. pneumoniae [11]): 46.2% | susceptibility rate (Escherichia coli; paediatric surgical unit (PSU)): 35% | susceptibility rate (Escherichia coli; paediatric units (PU)): 71% | susceptibility rate (M. catarrhalis; year 1): 77.3% | susceptibility rate (M. catarrhalis; year 2): 81.1% | patients with UTI within 2 years after transplantation [21]: 31%

CO[C@H]1/C=C/O[C@@]2(C)Oc3c(C)c(O)c4c(O)c(c(/C=N/N5CCN(C)CC5)c(O)c4c3C2=O)NC(=O)/C(C)=C\C=C\[C@H](C)[C@H](O)[C@@H](C)[C@@H](O)[C@@H](C)[C@H](OC(C)=O)[C@@H]1C [Rifampicin]
Susceptibility (S. aureus [22]; [28]): 99/99% | Susceptibility (S. aureus [22]; non-ICU): 99/99% | Susceptibility ([23]; ICU): 86% | Susceptibility ([23]; non-ICU): 97%

CCC[C@@H]1C[C@@H](C(=O)N[C@@H]([C@H]2O[C@H](SC)[C@H](O)[C@@H](O)[C@H]2O)[C@H](C)Cl)N(C)C1 [clindamycin]
% S (S. pneumoniae (SPN) [24]; 1998): 94/- % | % S (S. pneumoniae (SPN) [24]; 1999): 95/- % | % S (S. pneumoniae (SPN) [24]; 2000): 96/- % | % S (S. pneumoniae (SPN) [24]; 2001): 95/- % | % S (S. pneumoniae (SPN) [24]; 2002): 100/- % | % S (S. pneumoniae (SPN) [24]; 2003): 98/- % | Susceptibility (S. aureus [22]; [28]): 99% | Susceptibility (S. aureus [22]; non-ICU): 96% | MIC (C. difficile): > 256 µg/mL | MIC range (F. necrophorum): 0.016 to 0.125 µg/mL | MIC50 (F. necrophorum): 0.032 µg/mL (≈ 0.0753 µM) | MIC90 (F. necrophorum): 0.064 µg/mL (≈ 0.151 µM) | resistant (S. pneumoniae [25]): 5% | Susceptibility (S. pneumoniae [11]): 91.3% | % resistant [26]: More than 30% | MIC50 [14]: 0.06 µg/mL (≈ 0.141 µM) | MIC90 [14]: 256 µg/mL (≈ 602 µM)

CCN1CCN(c2cc3c(cc2F)c(=O)c(C(=O)O)cn3C2CC2)CC1 [enrofloxacin]
MIC (C. jejuni ATCC 33560): 0.25 to 0.5 µg/mL (≈ 0.696 to 1.39 µM)

Cc1ncc([N+](=O)[O-])n1CCO [metronidazole]
MIC ([27]; read-out: median MIC, 2003–4): 2 µg/mL (≈ 11.7 µM) | MIC ([27]; read-out: median MIC, other ribotypes): 0.5 µg/mL (≈ 2.92 µM) | MIC (B. fragilis strains; 10 nim-negative clinical isolates): 0.25 to 0.75 µg/mL (≈ 1.46 to 4.38 µM) | MIC (B. fragilis strains; ATCC25285, ATCC 25285, nim-negative): 0.19 µg/mL (≈ 1.11 µM) | MIC (B. fragilis strains; four nim-positive reference strains): 3 to 8 µg/mL (≈ 17.5 to 46.7 µM) | MIC (B. fragilis strains; three nim-positive clinical isolates): > 256 µg/mL | MIC (Clostridium difficile; Clostridioides difficile, read-out: MICs of selected resistant isolates): 16 to 64 µg/mL (≈ 93.5 to 374 µM) | prevalence of resistance (Clostridium difficile; authors' institution): 6% | MIC range (F. necrophorum): 0.016 to 2 µg/mL | MIC50 (F. necrophorum): 0.125 µg/mL (≈ 0.73 µM) | MIC90 (F. necrophorum): 0.5 µg/mL (≈ 2.92 µM)
